First: COc1cc(C(C)C)ccc1C1(NC(=O)c2ccccc2)C(=O)c2ccccc2C1=O
Second: COc1cc2c(N3CCN(C(=O)Nc4ccc(Oc5ccccc5)cc4)CC3)ncnc2cc1OC(C)C
The melting point of the first is lower: 106 to 108 °C for the first, 157 to 160 °C for the second.

Compared with `CCN1CCN(Cc2ccc(-c3ccc4c(Nc5cc(OC)c(Cl)cc5Cl)c(C#N)cnc4c3)o2)CC1`, `COCCN1CCc2ccc(Nc3ncc(Cl)c(Nc4ccccc4C(=O)NCC(C)C)n3)cc2CC1` is higher in melting point: 157 to 160 °C for the first, 178 to 181 °C for the second.

First: CCCOc1cc(CCCO)n(Cc2ccc(F)cc2F)n1
Second: CCCc1c(OCC2Cc3cc(CC(=O)OC)cc(F)c3O2)ccc(C(C)=O)c1O (stereo not drawn)
The melting point of the first is lower: 66 to 67 °C for the first, 80 to 82 °C for the second.

First: Cc1nc2cc(Nc3nccc(-c4ccc(N5CCNCC5)nc4)n3)ccc2s1
Second: Cc1c(S(=O)(=O)Nc2ccc(-c3ncco3)cc2S(C)(=O)=O)sc2ccc(F)cc12
The melting point of the first is higher: 209 to 211 °C for the first, 207 to 208 °C for the second.

Compared with `COc1cccc2c(CCN(C3CCC3)C3COc4c(F)ccc(C(N)=O)c4C3)coc12` (stereo not drawn), `COc1ccc(CC(=O)N2CCC3(CC2)Cc2ccccc2O3)cc1` is lower in melting point: 135 to 145 °C for the first, 87 to 88 °C for the second.

First: CCOC(=O)c1cc(OCc2ccccc2)c2ccc(C#N)cc2c1
Second: CCOC(=O)c1sc2cc(OCc3cccnc3)ccc2c1S(=O)(=O)c1ccccc1
The melting point of the first is higher: 125 °C for the first, 120 to 122 °C for the second.

Compared with `O=[N+]([O-])c1cc[nH]c1-c1ccccc1`, `C#CC(O)(c1ccccc1)c1ccc([N+](=O)[O-])cc1` (stereo not drawn) is lower in melting point: 190 to 192 °C for the first, 88 to 89 °C for the second.

Compared with `CSc1cn(C)c2sccc2c1=O`, `Cc1cn(C)c(C(=O)NS(=O)(=O)c2ccccc2Cl)n1` is higher in melting point: 138 to 140 °C for the first, 230 to 231 °C for the second.

First: CC(=O)OCc1ncc2n1-c1ccc(Cl)cc1C(c1ccccc1F)=[N+]([O-])C2
Second: Cc1ncc2n1-c1ccc(Cl)cc1C(c1ccccc1F)N(C)C2 (stereo not drawn)
The melting point of the first is higher: 203 to 205 °C for the first, 156 to 158 °C for the second.

Compared with `Nc1ccc(Oc2ccc(P(=O)(c3ccccc3)c3ccccc3)c(Oc3ccc(N)cc3)c2)cc1`, `COC(=O)C(Oc1ccc(Cl)cc1)c1ccc(Oc2ccc(S(C)(=O)=O)cc2)cc1` (stereo not drawn) is lower in melting point: 272 to 275 °C for the first, 182 to 183 °C for the second.

First: O=C1NCCCN1N=Cc1ccccc1
Second: Cc1ccccc1N1CCN(CC(O)c2ccc(N3CCCNC3=O)cc2)CC1 (stereo not drawn)
The melting point of the first is lower: 190 °C for the first, 234 to 235 °C for the second.

Compared with `CN(C)C=C1N=C(c2ccccc2Cl)c2cc(Cl)ccc2N(C)C1=O`, `Cc1nc2c(OCc3c(Cl)ccc(N(C)C(=O)CN4C(=O)c5ccccc5C4=O)c3Cl)cccc2n1C` is higher in melting point: 199 to 200 °C for the first, 226 to 227 °C for the second.

Compared with `CS(=O)(=O)C(=C1CN(C(c2ccccc2)c2ccccc2)C1)c1ccccc1O`, `O=C1CCN(Cc2ccccn2)CC1C(c1ccccc1)c1ccccc1` (stereo not drawn) is lower in melting point: 196 °C for the first, 100 °C for the second.

Compared with `COc1cc2nc(N3CCN(c4ccc(Cl)nn4)CC3)nc(N)c2cc1OC`, `COc1ccc(Cc2nccc3cc(O)ccc23)cc1OC` is lower in melting point: 269 to 270 °C for the first, 190 to 192 °C for the second.

First: CCn1c2ccc(C=NNc3ccccc3)cc2c2cc(C=NNc3ccccc3)ccc21
Second: Cc1cc2cc(F)ccc2n1-c1ccc(OCc2ccccc2)cc1
The melting point of the first is higher: 119 to 120 °C for the first, 94 to 95 °C for the second.

Compared with `O=S(=O)(Nc1cccc2c(O)cccc12)N1CCOCC1`, `COc1ccc(Br)c(C(=O)N2CCN(S(=O)(=O)c3ccc(F)cc3F)CC2)c1` is lower in melting point: 220 to 223 °C for the first, 194 °C for the second.

First: CC(C)=C(C#N)C(=O)OC(COc1ccc(C(=O)c2ccccc2)c(O)c1)COc1ccc(C(=O)c2ccccc2)c(O)c1
Second: CC(=O)SCC(Cc1ccccc1)C(=O)Nc1cccc(C(=O)OCCOc2ccccc2)c1 (stereo not drawn)
The melting point of the first is higher: 145 to 147 °C for the first, 90 to 92 °C for the second.

Compared with `O=C1CCC(N2Cc3c(OCc4cn5cc(CN6CCOCC6)ccc5n4)cccc3C2=O)C(=O)N1` (stereo not drawn), `Cn1ncc(-c2ccc3c(c2)c(C2=CCN(CCN4CCNC4=O)CC2)cn3-c2ccc(F)cc2)n1` is higher in melting point: 155 to 157 °C for the first, 175 to 177 °C for the second.

First: CC1(c2nnc(S(C)(=O)=O)s2)CC(F)(F)C1(F)Cl (stereo not drawn)
Second: CCCn1nc2c(N)nc3ccccc3c2c1CCNS(C)(=O)=O
The melting point of the first is lower: 63 °C for the first, 187 to 188 °C for the second.

First: COc1ccc(C(=O)Oc2ccc(C(=O)O)cc2)cc1C12CC3CC(CC(C3)C1)C2
Second: CCOC(=O)COc1ccc(C(=O)CN2CCN(c3ccncc3)CC2)cc1
The melting point of the first is higher: 265 to 267 °C for the first, 41 to 42 °C for the second.

First: CC(=O)c1ccc(-c2c(C)c(NC(=O)CC(C)(C)C)c(C)c3c2OCC3c2ccc(C(C)C)cc2)s1 (stereo not drawn)
Second: CCC(C(=O)OC)(C(=O)OC)C(Cc1cc(Cl)ccc1[N+](=O)[O-])c1ccc(OC)cc1 (stereo not drawn)
The melting point of the first is higher: 157 to 158 °C for the first, 95.5 to 97 °C for the second.

First: O=S(=O)(N[C@H]1CC[C@H](CCN2CCC(c3cccc4c3CCO4)CC2)CC1)c1ccc(F)cc1
Second: O=C(c1ccc(F)cc1)C1CCN(CCCCn2c(=O)[nH]c3ccccc32)CC1
The melting point of the first is lower: 134 °C for the first, 176 °C for the second.

Compared with `Fc1ccc(Nc2ccccc2C=C(Br)Br)cc1`, `CC(=O)NNc1ccc(N2C(=S)SCC2(O)c2ccccc2)cc1` (stereo not drawn) is higher in melting point: 75 to 77 °C for the first, 80 to 84 °C for the second.

Compared with `CC(C)(C)OC(=O)N1CCCN(c2ccncc2)CC1`, `C#CCn1c2c(c(=O)n(-c3ccc(Cl)c(C(=O)OCC)c3)c1=O)CCC2` is lower in melting point: 124 to 129 °C for the first, 121 to 123 °C for the second.

First: CCC(O)(c1ccc(OCc2ccccc2)cc1)c1cccc(Cl)c1 (stereo not drawn)
Second: COc1ccc(CCc2nc3ccccc3c(=O)n2CCN(C)C)cc1
The melting point of the first is lower: 52 to 53 °C for the first, 73.5 to 74.5 °C for the second.

First: C=Cc1ccc(CSC(CC(=O)O)C(=O)O)cc1 (stereo not drawn)
Second: CC(=O)N[C@@H](C)c1ccc(C(=O)O)cc1
The melting point of the first is lower: 173 to 175 °C for the first, 186 to 190 °C for the second.

Compared with `CC1(C)COP(=O)(O)OC1c1ccc2ccccc2c1` (stereo not drawn), `Cc1[nH]c(-c2ccccc2)nc1-c1ccc(Cl)c(Cl)c1` is lower in melting point: 237 to 238 °C for the first, 169 to 171 °C for the second.

Compared with `CS(=O)(=O)c1ccc(C(CC2CCCC2)C(=O)O)cc1C#N` (stereo not drawn), `O=C(O)c1cc(N2C(=O)C3=C(CCCC3)C2=O)ccc1O` is higher in melting point: 180 to 181 °C for the first, 240 °C for the second.

Compared with `CC(C)(CCl)C(O)C(Oc1ccc(Cl)cc1)n1ccnc1` (stereo not drawn), `Cc1cccc2c1nc(COc1ccc(Cl)cc1)n2CCC(C)CN1CCCC1` (racemic) is lower in melting point: 120 to 125 °C for the first, 85 to 87 °C for the second.

Compared with `CCCc1cc(NCc2ccc3c(c2)OCO3)nc(SCC(N)=NO)n1`, `CCCCS(=O)(=O)N(C)CCN1CC(c2ccc3c(c2)OCO3)C(C(=O)O)C1c1ccc(OC)cc1` (stereo not drawn) is lower in melting point: 145 to 147 °C for the first, 64 to 66 °C for the second.

First: CCOC(=O)C(C)=Cc1cn(-c2cccnc2)c2ccccc12
Second: CCCCCN1C(=O)CN=C(c2ccccc2)c2ccccc21
The melting point of the first is higher: 97 to 99 °C for the first, 93 to 95 °C for the second.

Compared with `COC(=O)C1=C(C(=O)OC)C2(c3ccc(Cl)cc3)C=CC1O2` (stereo not drawn), `COC(=O)C1=C(C=O)NC(C)=C(C(=O)OCC(C)C)C1c1ccccc1C#N` (stereo not drawn) is higher in melting point: 84 °C for the first, 152 to 154 °C for the second.

Compared with `COc1ccc(Nc2ncnc3occ(C)c23)cc1`, `COC(=O)c1[nH]c2cc(C)c(C)cc2c1-c1ccc(O)cc1` is higher in melting point: 99 to 102 °C for the first, 247 to 248 °C for the second.

Compared with `COc1cccc(C(=O)c2ccc([N+](=O)[O-])c(C=O)c2)c1`, `CC(=O)c1cccc(NC(=O)CCCC(=O)Nc2cccc(C(C)=O)c2)c1` is higher in melting point: 84 °C for the first, 174 to 175 °C for the second.

Compared with `O=C(Cc1c[nH]c2ccccc12)Nc1cc2c(cn1)[nH]c1ccccc12`, `Clc1ccc2c(c1)c(-c1ccccc1)nn1cnnc21` is lower in melting point: 252 to 254 °C for the first, 189 to 190 °C for the second.

First: COc1ccc(OC)c(C=CC(=O)C2C(=O)OC(=O)C(C(C)=O)=C2O)c1 (stereo not drawn)
Second: COc1ccc(OC)c2c1C(=O)C=C(SCCC(=O)O)C2=O
The melting point of the first is lower: 194 to 195 °C for the first, 208 to 209 °C for the second.

First: Nc1nc(NCCN2CCC(Nc3nc4ccccc4n3Cc3ccc(F)cc3)CC2)ccc1[N+](=O)[O-]
Second: O=C(Nc1ccc2oc3c(c2c1)CCCC3)c1ccc([N+](=O)[O-])cc1
The melting point of the first is lower: 206 °C for the first, 279 to 280 °C for the second.

Compared with `CC(=O)C(=Cc1cc(Cl)cc(Cl)c1)C(C)=O`, `CCOC(=O)C=Cc1ccn(C)c(=O)c1` is higher in melting point: 85 to 87 °C for the first, 126 to 127 °C for the second.

First: O=C(Nc1ccc(O)cc1[N+](=O)[O-])OCCCl
Second: CC(C)C(=O)Nc1cc([N+](=O)[O-])cc([N+](=O)[O-])c1
The melting point of the first is higher: 170 °C for the first, 157 to 159 °C for the second.

Compared with `O=C(O)CCCCCCCCCCC(=O)c1ccccc1`, `Cc1cc2oc3ccccc3c(=O)c2cc1OCC(=O)O` is higher in melting point: 83 to 86 °C for the first, 225 to 227 °C for the second.

First: CS(=O)(=O)c1ccc(C2=C(c3cccc(F)c3)C(=O)OC23CC3)cc1
Second: Cc1c(F)c(Oc2cccc(C(=N)N)c2)nc(Oc2cccc(C(=N)N)c2)c1F
The melting point of the first is lower: 130 to 131 °C for the first, greater than 210 °C for the second.

First: Cc1cc(NC(=O)c2cccnc2Cl)[nH]n1
Second: Oc1cc(Cl)c(OCc2ccccc2Cl)c(Cl)c1
The melting point of the first is higher: greater than 300 °C for the first, 108 °C for the second.

First: CCC(C(C)=CC(CNC(=O)c1nc[nH]n1)=NO)[N+](=O)[O-] (stereo not drawn)
Second: CCCNC(=O)C=Cc1ccc2ccn(Cc3ccc(C(=O)O)cc3OC)c2c1
The melting point of the first is lower: 131 to 136 °C for the first, 210 to 212 °C for the second.

First: CCOC(=O)c1c(Cn2cncn2)nc2cc(OC)c(O)cc2c1-c1ccc(O)c(O)c1
Second: CCOC(=O)c1nc2ccc(CO)cc2n1OC
The melting point of the first is higher: 264 to 266 °C for the first, 110 °C for the second.

Compared with `COCCCNc1nc(N)c(SC)c(F)n1`, `CC(C)(C)OC1CC(n2cnc3c(Cl)ncnc32)C2CC12COCc1ccccc1` (stereo not drawn) is higher in melting point: 48 to 64 °C for the first, 112 to 113 °C for the second.

First: Cc1cc(C(C)C)cc(C)c1CO
Second: O=C(O)C1CCOc2ccc(F)cc21 (stereo not drawn)
The melting point of the first is lower: 75 to 77 °C for the first, 111 to 115 °C for the second.

First: Brc1c[nH]c(CN2CCCC2)c1
Second: [N-]=[N+]=NCCc1c[nH]c(=O)[nH]c1=O
The melting point of the first is lower: 96 to 99 °C for the first, 230 to 235 °C for the second.

Compared with `Cn1cnc2nc(-c3ccc(C(F)(F)F)cc3)nn2c1=S`, `N#Cc1nn(-c2c(Cl)cc(C(F)(F)F)cc2Cl)c(N)c1C(=O)CBr` is lower in melting point: 270 to 272 °C for the first, 190 to 192 °C for the second.

First: CSc1ccc([N+](=O)[O-])cn1
Second: CC(=O)Nc1ccc(CC(=O)N[C@H]2C[C@H](C(=O)O)Nc3cc(Cl)cc(Cl)c32)cc1 (relative stereo)
The melting point of the first is lower: 111 to 112 °C for the first, 279 to 281 °C for the second.

— a melting point compilation (Tetko et al.; mined from patent text by program, amines drawn as free bases though some values may be those of a salt)
